Laboratory results taken from PubChem BioAssay (NCI).
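Tested at 5 concentrations; 48 h exposure; 96-well plates; endpoints linearly interpolated, else capped at highest concentration. At the GI50, growth is halved. TGI: concentration producing complete growth inhibition.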

Experiments:
Test in all cases: DTP human tumour cell line panel, 48 h
[1] = system: HCT-15 colon
[2] = system: NCI/ADR-RES ovarian
[3] = system: HCC-2998 colon
[4] = system: M14 melanoma
[5] = system: UACC-257 melanoma
[6] = system: MOLT-4 leukemia
[7] = system: SK-OV-3 ovarian
[8] = system: A498 renal
[9] = system: NCI-H23 lung
[10] = system: KM12 colon
[11] = system: HOP-92 NSCLC
[12] = system: 786-0 renal
[13] = system: SF-295 CNS
[14] = system: DU-145 prostate
[15] = system: MDA-MB-231 breast
[16] = system: RPMI-8226 leukemia
[17] = system: OVCAR-3 ovarian
[18] = system: OVCAR-4 ovarian
[19] = system: BT-549 breast
[20] = system: MDA-MB-435
[21] = system: TK-10 renal
[22] = system: LOX IMVI melanoma
[23] = system: T-47D breast
[24] = system: HT29 colon
[25] = system: IGROV1 ovarian
[26] = system: UO-31 renal
[27] = system: SK-MEL-5 melanoma
[28] = system: SK-MEL-28 melanoma
[29] = system: A549 NSCLC
[30] = system: SF-539 CNS
[31] = system: SNB-19 CNS
[32] = system: HL-60(TB) leukemia
[33] = system: SN12C renal
[34] = system: EKVX NSCLC
[35] = system: HS 578T breast
[36] = system: NCI-H460 lung
[37] = system: PC-3 prostate
[38] = system: CCRF-CEM leukemia
[39] = system: K-562 leukemia
[40] = system: NCI-H522 lung
[41] = system: MCF7 breast
[42] = system: SK-MEL-2 melanoma
[43] = system: UACC-62 melanoma
[44] = system: SR leukemia
[45] = system: U251 CNS
[46] = system: MALME-3M melanoma
[47] = system: OVCAR-8 ovarian
[48] = system: OVCAR-5 ovarian
[49] = system: SF-268 CNS
[50] = system: ACHN renal
[51] = system: HOP-62 NSCLC
[52] = system: CAKI-1 renal
[53] = system: MDA-MB-468 breast
[54] = system: RXF 393 renal
[55] = system: COLO 205 colon
[56] = system: SW-620 colon
[57] = system: NCI-H226 lung
[58] = system: SNB-75 CNS

CC(=O)Oc1ccccc1C(=O)Oc1ccc(C(=O)/C=C/c2ccncc2)cc1
GI50 [1]: 3.55 µM
TGI [1]: 18.8 µM
GI50 [2]: 20.7 µM
TGI [2]: > 100 µM
GI50 [3]: 4.83 µM
TGI [3]: 16.4 µM
GI50 [4]: 14.5 µM
TGI [4]: > 100 µM
GI50 [5]: 16.9 µM
TGI [5]: 63.4 µM
GI50 [6]: 15.9 µM
TGI [6]: 85.9 µM
GI50 [7]: 30.9 µM
TGI [7]: > 100 µM
GI50 [8]: 20.5 µM
TGI [8]: 71.4 µM
GI50 [9]: 10.8 µM
TGI [9]: 30.8 µM
GI50 [10]: 3.57 µM
TGI [10]: 22.2 µM
GI50 [11]: 21.1 µM
TGI [11]: > 100 µM
GI50 [12]: 16.1 µM
TGI [12]: > 100 µM
GI50 [13]: 8.56 µM
TGI [13]: 58.1 µM
GI50 [14]: 10.5 µM
TGI [14]: 44.1 µM
GI50 [15]: 8.6 µM
TGI [15]: 36.2 µM
GI50 [16]: 1.58 µM
TGI [16]: 7.19 µM
GI50 [17]: 5.3 µM
TGI [17]: 26 µM
GI50 [18]: 29.7 µM
TGI [18]: > 100 µM
GI50 [19]: 17 µM
TGI [19]: 38.7 µM
GI50 [20]: 4.45 µM
TGI [20]: 44.3 µM
GI50 [21]: 37.4 µM
TGI [21]: > 100 µM
GI50 [22]: 1.96 µM
TGI [22]: 5.87 µM
GI50 [23]: 23.8 µM
TGI [23]: 97.6 µM
GI50 [24]: 3.6 µM
TGI [24]: 20.1 µM
GI50 [25]: 7.4 µM
TGI [25]: 54 µM
GI50 [26]: 10.3 µM
TGI [26]: 24 µM
GI50 [27]: 12.4 µM
TGI [27]: 29.5 µM
GI50 [28]: 19.3 µM
TGI [28]: 62.1 µM
GI50 [29]: 15.1 µM
TGI [29]: > 100 µM
GI50 [30]: 4.29 µM
TGI [30]: 17.4 µM
GI50 [31]: 15.3 µM
TGI [31]: 47.3 µM
GI50 [32]: 4.93 µM
TGI [32]: 34.1 µM
GI50 [33]: 10.1 µM
TGI [33]: 45.5 µM
GI50 [34]: 14.7 µM
TGI [34]: 45.7 µM
GI50 [35]: 22.5 µM
TGI [35]: > 100 µM
GI50 [36]: 11.2 µM
TGI [36]: 48.9 µM
GI50 [37]: 10.4 µM
TGI [37]: > 100 µM
GI50 [38]: 2.38 µM
TGI [38]: > 100 µM
GI50 [39]: 2.29 µM
TGI [39]: > 100 µM
GI50 [40]: 4.85 µM
TGI [40]: 21.5 µM
GI50 [41]: 1.1 µM
TGI [41]: 9.24 µM
GI50 [42]: 32.5 µM
TGI [42]: > 100 µM
GI50 [43]: 16.6 µM
TGI [43]: 42.3 µM
GI50 [44]: 0.407 µM
TGI [44]: > 100 µM
GI50 [45]: 3.77 µM
TGI [45]: 70.8 µM
GI50 [46]: 16.5 µM
TGI [46]: 51.4 µM
GI50 [47]: 24.9 µM
TGI [47]: > 100 µM
GI50 [48]: 24.9 µM
TGI [48]: 99.1 µM
GI50 [49]: 25 µM
TGI [49]: > 100 µM
GI50 [50]: 15.6 µM
TGI [50]: 44.9 µM
GI50 [51]: 27.5 µM
TGI [51]: > 100 µM
GI50 [52]: 19.3 µM
TGI [52]: > 100 µM
GI50 [53]: 2.36 µM
TGI [53]: 8.34 µM
GI50 [54]: 5.25 µM
TGI [54]: 20.8 µM
GI50 [55]: 12.7 µM
TGI [55]: 40.5 µM
GI50 [56]: 3.04 µM
TGI [56]: 18.9 µM
GI50 [57]: 26.4 µM
TGI [57]: > 100 µM
GI50 [58]: 15.8 µM
TGI [58]: > 100 µM
